# Data reported in patent US12570709B2, “Self-assembling peptide amphiphiles displaying a transforming growth factor beta 1 (TGF-ß1) mimetic epitope” (Northwestern University, priority 2021, dated 2026).
# Bridge positions count the residues as written; N and C are the ends. Ends that are not written are not given here. I, II: the chains in the order shown. * marks the point of attachment. Palmitoyl = CCCCCCCCCCCCCCCC(=O)*
# Legend:
# [1] = Rheology of PA hydrogels (strain sweep, G′/G″ crossover); format: physicochemical; conditions: PA gels, 10 mol % co-assemblies
# Description: Gels were made using 2 wt % PA solutions prepared as previously described, using 10 mol % co-assemblies of epitope PA with diluent PA. 12-well chamber slides (Ibidi) were coated with 0.01 mg/mL poly-D-lysine (Sigma-Aldrich) solution and incubated overnight at 37° C. The wells were washed three times with water and air-dried for at least 30 minutes. 120 μL of PA solution was pipetted evenly into the well and gelling solution comprised of 110 mM NaCl, 3 mM KCl, and 25 mM CaCl2 was pipetted dropwise on top of the PA solution. The gels were incubated at 37° C. for 30 minutes, and then excess gelling solution was removed.
# Measurements were performed on an Anton Paar MCR302 rheometer with a 25 mm parallel-plate fixture. 120 μL of the PA/HA hybrid slurry was placed on the bottom plate and 30 μL of a 50 mM CaCl2/75 mM NaCl gelling solution was placed on the upper fixture. The fixture was lowered to a gap of 0.5 mm for 10 min during which time a 0.1% oscillatory strain was applied with a 10 rad/s angular frequency. The gap height was allowed to vary to keep the normal force at 0 N. Next, a strain sweep was performed at 10 rad/s from 0.1% to 100% strain to measure the strain to break the gel.
# [2] = test system: human chondrocytes encapsulated in PA hydrogels; assay: F-actin ICC and confocal microscopy of chondrocytes encapsulated in PA gels; format: cell-based; conditions: three days in vitro, equal concentrations of cells encapsulated
# Description: (§1) Fixed samples were permeabilized and blocked in a solution of 0.1% (v/v) Triton X-100 and 1% normal horse serum (Invitrogen) for 2 hours at room temperature. Samples were incubated with primary antibodies overnight at 4° C. The following primary antibodies were used: rabbit anti-Sox9 (1:500, Abcam), mouse anti-Aggrecan (1:500, ThermoFisher), mouse anti-Collagen II (1:500, ThermoFisher), and mouse anti-Nuclei (1:500, Sigma-Aldrich). The next day, samples were incubated with AlexaFluor 488 secondary antibody, AlexaFluor 555 secondary antibody, Phalloidin AlexaFluor 488, and/or Phalloidin AlexaFluor 633 (1:1000, Invitrogen) for 2-3 h at room temperature. For 2D cell culture, samples were then incubated with DAPI (1:1000, Invitrogen) for 10 minutes at room temperature. If not already on a glass coverslip, samples were mounted with Immu-Mount (Thermo Scientific) and imaged on a Nikon A1R Spectral microscope. Image analysis was performed using ImageJ software.
# Chondrocytes were trypsinized and resuspended in growth media for counting, and then pelleted and resuspended to 6×10^7 cells/mL in growth media. The cell solution was mixed 1:2 v/v with sterile PA solution prepared at 3 wt % in 30 mM NaCl. For gels also encapsulating rhTGF-β1 protein (R&D Systems), soluble protein was added to PA solutions after thermal annealing. 120 μL of PA/cell solution was mixed thoroughly by pipetting gently and then placed into PDL-coated 12-well chamber slides (Ibidi). Sterile gelling solution, comprised of 110 mM NaCl, 3 mM KCl, and 25 mM CaCl2, was pipetted dropwise on top of the PA/cell solution and the gels were incubated for 30 minutes at 37° C. Following incubation, excess gelling solution was removed and 250 μL of growth media was added to each well. The media was removed after 3 days for LDH viability assays as described above. For ICC, after 3 days of in vitro culture, gels were fixed in 4% paraformaldehyde for 30 minutes at room temperature.
# [3] = Transverse-relaxation (T2) NMR spectroscopy of PA assemblies; format: physicochemical; conditions: backbone PA assemblies
# Description: NMR spectra were acquired at 600 MHz on a Brucker Neo system with QCI-F cryoprobe. NMR spectra for PAs were recorded at 25° C. using TFA-d, H2O/D2O in 9/1 ratio (D2O contains 0.05 wt. % 3-(trimethylsilyl) propionic-2,2,3,3-d4 acid, sodium salt) as solvents. Chemical shifts are reported in part per million (ppm). The […] was 15 μs and typical spectra required 32 scans.
# The spin-spin relaxation rates were measured using the Carr-Purcell-Gill-Meiboom pulse sequence with a delay time of 0.2 ms in a variable loop. The peak intensity data was fit to and exponential in the form:
# [formula] where τ is the length of the delay time, R2 is the spin-spin relaxation rate and b are the baseline.^2 Cell Culture
# [4] = test system: collagen II, COMP, aggrecan and Sox9 in human chondrocytes; assay: Western blot of ECM proteins after three days treatment; format: cell-based; conditions: 10 μM, three days in vitro
# Description: (§2) For western blot of 4 h PA treatments, cells were seeded in 6-well plates at a density of 600,000 cells/well and cultured for 24 h. […] Cells were then treated with PA in solution for 4 h in vitro. For western blot of 3-day PA treatments, cells were seeded in 6-well plates at a density of 230,000 cells/well and cultured for 24 h. Cells were then treated with PA in solution for 3 days in vitro.
# (§3) Protein was extracted from cells using Halt Protease and Phosphatase Inhibitor Cocktail (Thermo Scientific) and a BCA assay (Thermo Scientific) was performed to determine protein content of each sample. Cell protein was loaded into and separated using a 4-20% SDS-PAGE gel (Bio-Rad). It was then electrotransferred from the gel to a nitrocellulose membrane (Bio-Rad). The membranes were blocked with 10% milk solution (Bio-Rad) for 30 minutes followed by an overnight incubation with primary antibodies at 4° C. The following primary antibodies were used: rabbit anti-pSmad2 (1:1000, Cell Signaling), rabbit anti-Smad2 (1:1000, Cell Signaling), rabbit anti-Sox9 (1:500, Abcam), mouse anti-Aggrecan (1:500, ThermoFisher), rabbit anti-COMP/Cartilage oligomeric matrix protein (1:500, Abcam), mouse anti-Collagen II (1:500, ThermoFisher), and mouse anti-Actin (1:1000, Novus Bio). Membranes were then incubated with their corresponding secondary HRP-conjugated antibodies (1:1000, ThermoFisher). Protein signals were detected using Radiance Bioluminescent ECL substrate (Azure Biosystems). Densitometry analysis, standardized to total receptor content or actin as a control for protein loading, was performed using ImageJ software. For quantification, experimental triplicate samples were analyzed, and two different experiments were conducted.
# [5] = test system: Smad2 phosphorylation (intracellular TGF-β1 signaling) in human chondrocytes; assay: Western blot of phosphorylated Smad2 after 4 h treatment; format: cell-based; conditions: for activation of p-Smad2 with addition of pan-TGF-β-neutralizing antibody 1D11: with vs without 1D11
# Description: as §2, §3
# [6] = Dynamic light scattering of TGF-β1 mimetic peptide; format: physicochemical; conditions: peptide alone, 100 mol %, 1 wt %, 25° C.
# Description: DLS measurements were performed on a Malvern Zetasizer Nano ZSP light scattering spectrometer. The TGF-β1 mimetic peptide alone, without PA, was prepared at 1 wt % as previously described. During the sample measurement, the temperature was kept at 25° C. The sample was equilibrated for 30 seconds before each measurement was taken. The duration of each measurement was 10 seconds, and the measurement angle was 173° backscatter. The attenuator was determined by the instrument automatically, as was the number of accumulations for each run. Each measurement run was repeated 3 times.
# [7] = test system: collagen II, aggrecan and F-actin in human chondrocytes; assay: Immunocytochemistry staining and fluorescence intensity analysis after three days; format: cell-based; conditions: three days in vitro
# Description: For immunocytochemistry (ICC), 12-mm glass coverslips were coated with sterile filtered 0.01 mg/mL poly-D-lysine (Sigma-Aldrich) solution and incubated overnight at 37° C. The coverslips were washed three times with sterile water and air-dried for at least 30 minutes. Cells were seeded on coverslips at a density of approximately 3,000 cells/coverslip and cultured for 24 h. Cells were then treated with PA in solution for 3 days in vitro. Following treatment, cells were fixed in 4% paraformaldehyde for 15 minutes at room temperature.
# as §1
# [8] = cited from earlier work
substance,measurement,setting,value
C16-AAEE (Palmitoyl-AAEE-OH; SMILES CCCCCCCCCCCCCCCC(=O)N[C@@H](C)C(=O)N[C@@H](C)C(=O)N[C@@H](CCC(=O)O)C(=O)N[C@@H](CCC(=O)O)C(=O)O) [Backbone PA-a],G′/G″ crossover % strain,[1],7.10 ± 1.49%
same,G′/G″ crossover storage modulus,[1],0.55 ± 0.13 kPa
same,cells within the bulk of the gel,[2],Far fewer cells were visible
same,1H spin-spin (T2) relaxation rate of terminal alkyl methyl protons,[3],3.67 ± 0.23 s⁻¹
C16-AEAE (Palmitoyl-AEAE-OH; SMILES CCCCCCCCCCCCCCCC(=O)N[C@@H](C)C(=O)N[C@@H](CCC(=O)O)C(=O)N[C@@H](C)C(=O)N[C@@H](CCC(=O)O)C(=O)O) [Backbone PA-b],1H spin-spin (T2) relaxation rate of terminal alkyl methyl protons,[3],20.49 ± 0.58 s⁻¹
"CESPLKRQC (disulfide 1-9 (inferred)) [TGF-β1 mimetic peptide, reference compound]","ECM synthesis (collagen II, COMP, aggrecan, Sox9)",[4],low activation
same,p-Smad2 activation,"[5]; 50 μM, 4 h, 10 mol % co-assemblies",no activation
same,hydrodynamic diameter of micelles,[6],approximately 2 nm
same,size of aggregates of micelles,[6],~200 nm
same,upregulation of collagen II and aggrecan,"[7]; 10 μM, ICC",little upregulation of either protein
TGF PA-b: backbone PA SEQ ID NO: 8 conjugated to cyclic TGF-β1 mimetic peptide (SEQ ID NO: 1) by a linker; co-assembled with diluent Backbone PA-b (chain Palmitoyl-AEAEK-OH; peptide CESPLKRQC; disulfide II:1-II:9; not fully specified (some residues); also: co-assembled with diluent backbone PA-b),activation of p-Smad2 with addition of pan-TGF-β-neutralizing antibody 1D11,[5],effectively neutralized
"rhTGF-β1: native recombinant human TGF-β1 (R&D Systems), positive control",activation of p-Smad2 with addition of pan-TGF-β-neutralizing antibody 1D11,[5],effectively neutralized
same,half-life in its active form in vivo,[8],2 to 3 min
same,aggrecan synthesis,"[7]; 10 μM, ICC",significantly increased aggrecan synthesis at similar levels
same,chondrocyte phenotype (F-actin staining),[7],maintained healthy chondrocyte phenotypes and prevented hypertrophy
